From patent US12122799B2, “Antibiotics for veterinary staphylococcal infections” (THE GEORGE WASHINGTON UNIVERSITY, A CONGRESSIONALLY …, priority 2018, dated 2024)
Where two headings read alike, the source gives them in different places. Each block holds one compound with its values, some of them ahead of it.

How the values were obtained:
S. schleiferi = experiment: Growth inhibition of Staphylococcus species assay; type: cell-based; settings: read-out: Bacterial IC50 (Mean ± SD) S.s.
S. pseudintermedius [1] = experiment: Growth inhibition of Staphylococcus species assay; type: cell-based; settings: read-out: Bacterial IC50 (Mean ± SD) S.p.
S. chromogenes [2] = experiment: Growth inhibition of Staphylococcus species assay; type: cell-based; settings: read-out: Bacterial IC50 (Mean ± SD) S.c.
recombinant DXR enzyme [3] = experiment: DXR enzyme activity assay; type: biochemical; settings: recombinant S. chromogenes DXR, n=3; read-out: S. chromogenes IC50 (mean ± SD)
recombinant DXR enzyme [4] = experiment: DXR enzyme activity assay; type: biochemical; settings: read-out: S. schleiferi IC50 (mean ± SD)
S. aureus = type: cell-based; settings: read-out: Bacterial IC50 (Mean ± SD) S.a.
S. schleferi = type: cell-based, S. schleiferi
S. pseudintermedius [5] = type: cell-based
S. chromogenes [6] = type: cell-based
P. falciparum = settings: read-out: inhibition of P. falciparum growth IC50; cited from earlier work
[7] = S. schleiferi growth, LB media, 20 h, OD600

IC50 (S. schleiferi; [7]): 8700 nM
SMILES: CC(C)(C)C(=O)OCOP(=O)(/C=C/CN(O)C(=O)CCCc1ccccc1)OCOC(=O)C(C)(C)C [JXW-168]

IC50 (S. schleiferi; [7]): 1300 nM
SMILES: CC(C)(C)C(=O)OCOP(=O)(/C=C/CN(O)C(=O)c1ccccc1)OCOC(=O)C(C)(C)C [JXW-189]

SMILES: COCOCOCOP(=O)(/C=C/CN(O)C=O)OCOCOCOC [JXW-573]
IC50 (S. schleiferi; [7]): 30 nM | IC50 (S. pseudintermedius [1]; S. pseudintermedius growth, LB media, 20 h, OD600): 210 ± 40 nM | IC50 (S. chromogenes [2]; S. chromogenes growth, LB media, 20 h, OD600): 40 nM | IC50 (recombinant DXR enzyme [3]): 15200 ± 2360 nM | IC50 (recombinant DXR enzyme [4]; recombinant S. schleiferi DXR, n=3): 12600 ± 1880 nM

IC50 (S. schleiferi; [7]): 210 ± 50 nM
SMILES: CC(=O)N(O)C/C=C/P(=O)(OCOC(=O)c1ccccc1)OCOC(=O)c1ccccc1 [KMH-102]

SMILES: O=CN(O)CCCP(=O)(O)O [fosmidomycin]
IC50 (S. schleiferi): 780 ± 130 nM | IC50 (S. pseudintermedius [1]): 310 ± 40 nM | IC50 (S. chromogenes [2]): 310 ± 10 nM | IC50 (S. aureus): > 100000 nM | IC50 (recombinant DXR enzyme [4]): 670 ± 60 nM | bacteriostatic or bactericidal in S. schleferi (S. schleferi): bacteriostatic | bacteriostatic or bactericidal in S. pseudintermedius (S. pseudintermedius [5]): bacteriostatic | bacteriostatic or bactericidal in S. chromogenes (S. chromogenes [6]): bacteriostatic | IC50 (P. falciparum): 90 to 350 nM
